Test results from ChEMBL document CHEMBL4130367, “Click chemistry-based synthesis and anticancer activity evaluation of novel C-14 1,2,3-triazole dehydroabietic acid hybrids” (Eur J Med Chem, 2017).
Calls of active or inactive are those of the source. No cut-off for these calls is given here.

Tests used:
MDA-MB-231 [1] = assay: Induction of apoptosis in human MDA-MB-231 cells assessed as early apoptotic cells at 0.1 uM after 24 hrs by Annexin V-FITC/propidium iodide staining based flow cytometry (reference value: 2.33%); type: functional
SK-OV-3 = assay: Cytotoxicity against human SKOV3 cells assessed as reduction in cell viability after 72 hrs by MTT assay; type: functional, cell-based; details: SK-OV-3, 72 h
PC-3 = assay: Cytotoxicity against human PC3 cells assessed as reduction in cell viability after 72 hrs by MTT assay; type: functional, cell-based; details: PC-3, 72 h
MDA-MB-231 [2] = assay: Cytotoxicity against human MDA-MB-231 cells assessed as reduction in cell viability after 72 hrs by MTT assay; type: functional, cell-based; details: MDA-MB-231, 72 h
U-251 = assay: Cytotoxicity against human U251 cells assessed as reduction in cell viability after 72 hrs by MTT assay; type: functional, cell-based; details: U-251, 72 h
A549 [3] = assay: Cytotoxicity against human A549 cells assessed as reduction in cell viability after 72 hrs by MTT assay; type: functional, cell-based; details: A549, 72 h
LNCaP = assay: Cytotoxicity against human LNCAP cells assessed as reduction in cell viability after 72 hrs by MTT assay; type: functional, cell-based
HCT-116 = assay: Cytotoxicity against human HCT116 cells assessed as reduction in cell viability after 72 hrs by MTT assay; type: functional, cell-based; details: HCT-116, 72 h
L02 = assay: Cytotoxicity against human HL7702 cells assessed as reduction in cell viability after 72 hrs by MTT assay; type: cell-based; details: L02, 72 h
[4] = Selectivity index, ratio of IC50 for human HL7702 cells to IC50 for human U251 cells; type: toxicity; details: HL7702 cells versus U251 cells, read-out: Ratio IC50
[5] = Selectivity index, ratio of IC50 for human HL7702 cells to IC50 for human SKBR3 cells; type: toxicity; details: HL7702 cells versus SKBR3 cells, read-out: Ratio IC50
[6] = Selectivity index, ratio of IC50 for human HL7702 cells to IC50 for human A549 cells; type: toxicity; details: HL7702 cells versus A549 cells, read-out: Ratio IC50
[7] = Selectivity index, ratio of IC50 for human HL7702 cells to IC50 for human LNCAP cells; type: toxicity; details: HL7702 cells versus LNCAP cells, read-out: Ratio IC50
[8] = Selectivity index, ratio of IC50 for human HL7702 cells to IC50 for human SMCC7721 cells; type: toxicity; details: HL7702 cells versus SMCC7721 cells, read-out: Ratio IC50
[9] = Selectivity index, ratio of IC50 for human HL7702 cells to IC50 for human HCT116 cells; type: toxicity; details: HL7702 cells versus HCT116 cells, read-out: Ratio IC50
[10] = Selectivity index, ratio of IC50 for HFF cells to IC50 for human SKBR3 cells; type: toxicity; details: HFF cells versus SKBR3 cells, read-out: Ratio IC50
[11] = Selectivity index, ratio of IC50 for HFF cells to IC50 for human SMCC7721 cells; type: toxicity; details: HFF cells versus SMCC7721 cells, read-out: Ratio IC50
[12] = Selectivity index, ratio of IC50 for HFF cells to IC50 for human HCT116 cells; type: toxicity; details: HFF cells versus HCT116 cells, read-out: Ratio IC50
NCI/ADR-RES [13] = assay: Growth inhibition of human MCF7/ADR cells at 2.5 to 5 uM after 72 hrs by MTT assay relative to control; type: functional
NCI/ADR-RES [14] = assay: Growth inhibition of human MCF7/ADR cells after 72 hrs by MTT assay; type: functional, cell-based
[15] = Metabolic stability in rat liver microsomes assessed as parent compound remaining after 30 mins in presence of NADPH by HPLC analysis; type: ADME, microsome; details: read-out: Stability
[16] = Metabolic stability in dog liver microsomes assessed as parent compound remaining after 30 mins in presence of NADPH by HPLC analysis; type: ADME, Canis lupus familiaris, microsome; details: read-out: Stability
[17] = Metabolic stability in rat liver microsomes assessed as parent compound remaining after 60 mins in presence of NADPH by HPLC analysis; type: ADME, microsome; details: read-out: Stability
[18] = Metabolic stability in mouse liver microsomes assessed as parent compound remaining after 90 mins in presence of NADPH by HPLC analysis; type: ADME, microsome; details: read-out: Stability
[19] = Metabolic stability in rat liver microsomes assessed as parent compound remaining after 90 mins in presence of NADPH by HPLC analysis; type: ADME, microsome; details: read-out: Stability
[20] = Metabolic stability in dog liver microsomes assessed as parent compound remaining after 90 mins in presence of NADPH by HPLC analysis; type: ADME, Canis lupus familiaris, microsome; details: read-out: Stability
[21] = Metabolic stability in mouse liver microsomes assessed as parent compound remaining after 120 mins in presence of NADPH by HPLC analysis; type: ADME, microsome; details: read-out: Stability
[22] = Metabolic stability in rat liver microsomes assessed as parent compound remaining after 120 mins in presence of NADPH by HPLC analysis; type: ADME, microsome; details: read-out: Stability
[23] = Metabolic stability in rat liver microsomes assessed as parent compound remaining after 150 mins in presence of NADPH by HPLC analysis; type: ADME, microsome; details: read-out: Stability
[24] = Metabolic stability in mouse liver microsomes assessed as parent compound remaining after 180 mins in presence of NADPH by HPLC analysis; type: ADME, microsome; details: read-out: Stability
[25] = Metabolic stability in rat liver microsomes assessed as parent compound remaining after 180 mins in presence of NADPH by HPLC analysis; type: ADME, microsome; details: read-out: Stability
[26] = Half life in dog liver microsomes in presence of NADPH by HPLC analysis; type: ADME, Canis lupus familiaris, microsome
A549 [27] = assay: Induction of apoptosis in human A549 cells assessed as genomic DNA fragmentation at 2.5 uM after 24 hrs by DAPI/TUNEL staining based spectrofluorometric method; type: functional, cell-based
A549 [28] = assay: Effect on microtubule formation in human A549 cells assessed as morphological changes at 1 to 10 umol after 18 hrs; type: cell-based
MDA-MB-231 [29] = assay: Induction of apoptosis in human MDA-MB-231 cells assessed as dead cells at 0.1 uM after 24 hrs by Annexin V-FITC/propidium iodide staining based flow cytometry (reference value: 2.15%); type: functional
MDA-MB-231 [30] = assay: Induction of apoptosis in human MDA-MB-231 cells assessed as early apoptotic cells at 1 uM after 24 hrs by Annexin V-FITC/propidium iodide staining based flow cytometry (reference value: 2.33%); type: functional
MDA-MB-231 [31] = assay: Induction of apoptosis in human MDA-MB-231 cells assessed as late apoptotic cells at 1 uM after 24 hrs by Annexin V-FITC/propidium iodide staining based flow cytometry (reference value: 2.97%); type: functional
MDA-MB-231 [32] = assay: Induction of apoptosis in human MDA-MB-231 cells assessed as dead cells at 1 uM after 24 hrs by Annexin V-FITC/propidium iodide staining based flow cytometry (reference value: 2.15%); type: functional
MDA-MB-231 [33] = assay: Downregulation of NFkB p65 protein expression in human MDA-MB-231 cells up to 1 uM after 48 hrs by Western blot analysis; type: functional, cell-based
MDA-MB-231 [34] = assay: Induction of apoptosis in human MDA-MB-231 cells assessed as cleaved caspase-3 protein expression up to 1 uM after 48 hrs by Western blot analysis; type: functional, cell-based
MDA-MB-231 [35] = assay: Induction of apoptosis in human MDA-MB-231 cells assessed as cleaved PARP protein expression up to 1 uM after 48 hrs by Western blot analysis; type: functional, cell-based

## COC(=O)[C@]1(C)CCC[C@]2(C)c3ccc(C(C)C)c(NC(=O)Cn4cc(-c5cccc(NC(=O)OC(C)(C)C)c5)nn4)c3CC[C@@H]12
MDA-MB-231 [1]
  Activity: 4.32%
SK-OV-3
  IC50: 1200 nM
PC-3
  IC50: 900 nM
MDA-MB-231 [2]
  IC50: 700 nM
U-251
  IC50: 1800 nM
A549 [3]
  IC50: 1300 nM
LNCaP
  IC50: 600 nM
HCT-116
  IC50: 1000 nM
L02
  IC50: 7800 nM
[4]
  selectivity ratio: 4.5
[5]
  selectivity ratio: 8.4
[6]
  selectivity ratio: 6.1
[7]
  selectivity ratio: 12.4
[8]
  selectivity ratio: 7.6
[9]
  selectivity ratio: 7.9
[10]
  selectivity ratio: 5.8
[11]
  selectivity ratio: 5.2
[12]
  selectivity ratio: 5.4
NCI/ADR-RES [13]
  growth inhibition (GI): >50%
NCI/ADR-RES [14]
  IC50: 900 nM
  growth inhibition (GI): Dose-dependent effect
[15]
  remaining at 0.5 h: 85.4%
[16]
  remaining at 0.5 h: 77.3%
[17]
  remaining at 1 h: 79.3%
[18]
  remaining at 1.5 h: 61.3%
[19]
  remaining at 1.5 h: 70.5%
[20]
  remaining at 1.5 h: 31.6%
[21]
  remaining at 2 h: 43.7%
[22]
  remaining at 2 h: 58.4%
[23]
  remaining at 2.5 h: 42.1%
[24]
  remaining at 3 h: 11.1%
[25]
  remaining at 3 h: 31%
[26]
  t1/2: 1.16 h
A549 [27]
  Activity: Active
A549 [28]
  Activity: inactive
MDA-MB-231 [29]
  Activity: 7.57%
MDA-MB-231 [30]
  Activity: 6.13%
MDA-MB-231 [31]
  Activity: 16.75%
MDA-MB-231 [32]
  Activity: 7.01%
MDA-MB-231 [33]
  Activity: Active
MDA-MB-231 [34]
  Activity: Active
MDA-MB-231 [35]
  Activity: Active
